# Assays:
# Type in all cases: in vivo
# [1] = system: Abutilon theophrasti; assay: Test Example 5: herbicidal effect by foliage application, plastic box (symbol M); conditions: 320 g/ha, 3 weeks after application
# In short: (§1)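 Herbicide, formulated as an emulsion and diluted in water, is sprayed onto the aerial parts of 14-day seedlings. These were grown at 25° C. to 30° C. in sterilized diluvial soil; effects are graded after 3 weeks.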
# [2] = system: wheat; assay: Test Example 4: effect on crop by soil treatment (symbol e); conditions: application herbicide amount 320 g/ha
# In short: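 Soil-treatment setup: crop and weed seeds were spot-sown into sterilized diluvial soil, then buried beneath approximately 1.5 cm of it, and the boxes were housed in a 25–30° C. greenhouse.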
# [3] = system: Lolium multiflorum Lam.; assay: Test Example 4: herbicidal effect by soil treatment (symbol K); conditions: application herbicide amount 320 g/ha
# In short: (§2)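 Seeds were sown in sterilized diluvial soil, covered with about 1.5 cm of soil, and the soil surface was sprayed with a water-diluted emulsion of the compound at a predetermined rate. Plants grew in a greenhouse at 25° C. to 30° C.; effects were scored visually 3 weeks after application.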
# [4] = system: beet; assay: Test Example 5: effect on crop by foliage application, plastic box (symbol f); conditions: 320 g/ha, 3 weeks after application
# In short: (§3)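 Crop seed is sown alongside grass and broadleaf weed species in spots in sterilized diluvial soil, then covered to a depth of about 1.5 cm. Plants grow in a greenhouse kept at 25° C. to 30° C.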
# [5] = system: Amaranthus retroflexus; assay: Test Example 5: herbicidal effect by foliage application, plastic box (symbol N); conditions: 320 g/ha, 3 weeks after application
# In short: as §1
# [6] = system: Stellaria media; assay: Test Example 4: herbicidal effect by soil treatment (symbol P); conditions: application herbicide amount 320 g/ha
# In short: as §2
# [7] = system: Echinochloa crus-galli var. crus-galli; assay: Test Example 3: herbicidal effect by foliage application, Wagner pot (symbol H); conditions: application herbicide amount 320 g/ha
# In short: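 Alluvial soil was flooded to a depth of 0.1–0.5 cm, seeded with the weeds and rice, and kept in a greenhouse at 25–30 °C. After 14 days of growth, the foliage received a small-sprayer application of emulsion diluted to the intended rate; injury was rated at 3 weeks.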
# [8] = system: transplanted rice plant; assay: Test Example 1: effect on crop, application before weed generation in submerged conditions (symbol a); conditions: application herbicide amount 320 g/ha
# In short: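 Rice at 2.5 leaf stage transplanted into submerged soil (4 cm depth) sown with three weed species; herbicide applied before weed emergence.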
# [9] = system: Stellaria media; assay: Test Example 5: herbicidal effect by foliage application, plastic box (symbol P); conditions: 320 g/ha, 3 weeks after application
# In short: as §1
# [10] = system: Echinochloa oryzacola Vasing.; assay: Test Example 1: herbicidal activity, application before weed generation in submerged conditions (symbol A); conditions: application herbicide amount 320 g/ha
# In short: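 Mixed weed seeds sown in alluvial soil under 4 cm of water, with rice seedlings at the 2.5-leaf stage added. Same-day treatment: emulsion diluted to a set herbicide amount onto the water. Three weeks at 25–30 °C, then graded on a six-step scale.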
# [11] = system: Amaranthus retroflexus; assay: Test Example 4: herbicidal effect by soil treatment (symbol N); conditions: application herbicide amount 320 g/ha
# In short: as §2
# [12] = system: wheat; assay: Test Example 5: effect on crop by foliage application, plastic box (symbol e); conditions: 320 g/ha, 3 weeks after application
# In short: as §3
# [13] = system: Setaria viridis; assay: Test Example 5: herbicidal effect by foliage application, plastic box (symbol G); conditions: 320 g/ha, 3 weeks after application
# In short: as §1
# [14] = system: Setaria viridis; assay: Test Example 4: herbicidal effect by soil treatment (symbol G); conditions: application herbicide amount 320 g/ha
# In short: as §2
# [15] = system: Avena fatua; assay: Test Example 5: herbicidal effect by foliage application, plastic box (symbol I); conditions: 320 g/ha, 3 weeks after application
# In short: as §1
SMILES,"M: Abutilon theophrasti, herbicidal effect grade [1]","e: wheat, effect on crop grade [2]","K: Lolium multiflorum Lam., herbicidal effect grade [3]","f: beet, effect on crop grade [4]","N: Amaranthus retroflexus, herbicidal effect grade [5]","P: Stellaria media, herbicidal effect grade [6]","herbicidal effect on H (Echinochloa crus-galli var. crus-galli), grade 0-5 [7]","Effect grade on crop, a: transplanted rice plant [8]","P: Stellaria media, herbicidal effect grade [9]","Herbicidal effect grade, A: Echinochloa oryzacola Vasing. [10]","N: Amaranthus retroflexus, herbicidal effect grade [11]","e: wheat, effect on crop grade [12]","G: Setaria viridis, herbicidal effect grade [13]","G: Setaria viridis, herbicidal effect grade [14]","I: Avena fatua, herbicidal effect grade [15]",e (wheat) effect on crop grade [2],K (Lolium multiflorum Lam.) herbicidal effect grade [3],P (Stellaria media) herbicidal effect grade [6],N (Amaranthus retroflexus) herbicidal effect grade [11],G (Setaria viridis) herbicidal effect grade [14]
CCC(=O)CC1CC(O)=C(c2c(C)cc(C)cc2C)C1=O (stereo not drawn) [2-006],0 (Herbicidal ratio of 5% or lower (almost no effect)),0 (Herbicidal ratio of 5% or lower (almost no effect)),5 (Herbicidal ratio of 90% or more (almost completely withered)),0 (Herbicidal ratio of 5% or lower (almost no effect)),0 (Herbicidal ratio of 5% or lower (almost no effect)),0 (Herbicidal ratio of 5% or lower (almost no effect)),5 (Herbicidal ratio of 90% or more (almost completely withered)),3 (Herbicidal ratio of 40% or higher and lower than 70%),0 (Herbicidal ratio of 5% or lower (almost no effect)),5 (Herbicidal ratio of 90% or more (almost completely withered)),0 (Herbicidal ratio of 5% or lower (almost no effect)),0 (Herbicidal ratio of 5% or lower (almost no effect)),3 (Herbicidal ratio of 40% or higher and lower than 70%),5 (Herbicidal ratio of 90% or more (almost completely withered)),3 (Herbicidal ratio of 40% or higher and lower than 70%),,,,,
Cc1cc(C)c(C2=C(O)CC(CC(=O)c3ccc(F)cc3)C2=O)c(C)c1 (stereo not drawn) [2-032],0 (Herbicidal ratio of 5% or lower (almost no effect)),0 (Herbicidal ratio of 5% or lower (almost no effect)),5 (Herbicidal ratio of 90% or more (almost completely withered)),0 (Herbicidal ratio of 5% or lower (almost no effect)),0 (Herbicidal ratio of 5% or lower (almost no effect)),0 (Herbicidal ratio of 5% or lower (almost no effect)),5 (Herbicidal ratio of 90% or more (almost completely withered)),5 (Herbicidal ratio of 90% or more (almost completely withered)),0 (Herbicidal ratio of 5% or lower (almost no effect)),4 (Herbicidal ratio of 70% or higher and lower than 90%),0 (Herbicidal ratio of 5% or lower (almost no effect)),1 (Herbicidal ratio of 5% or higher and lower than 20%),5 (Herbicidal ratio of 90% or more (almost completely withered)),5 (Herbicidal ratio of 90% or more (almost completely withered)),3 (Herbicidal ratio of 40% or higher and lower than 70%),,,,,
CCC(C)C(=O)CC1CC(O)=C(c2c(C)cc(C)cc2C)C1=O (stereo not drawn) [2-024],0 (Herbicidal ratio of 5% or lower (almost no effect)),0 (Herbicidal ratio of 5% or lower (almost no effect)),0 (Herbicidal ratio of 5% or lower (almost no effect)),0 (Herbicidal ratio of 5% or lower (almost no effect)),0 (Herbicidal ratio of 5% or lower (almost no effect)),0 (Herbicidal ratio of 5% or lower (almost no effect)),5 (Herbicidal ratio of 90% or more (almost completely withered)),4 (Herbicidal ratio of 70% or higher and lower than 90%),0 (Herbicidal ratio of 5% or lower (almost no effect)),2 (Herbicidal ratio of 20% or higher and lower than 40%),0 (Herbicidal ratio of 5% or lower (almost no effect)),0 (Herbicidal ratio of 5% or lower (almost no effect)),5 (Herbicidal ratio of 90% or more (almost completely withered)),5 (Herbicidal ratio of 90% or more (almost completely withered)),2 (Herbicidal ratio of 20% or higher and lower than 40%),,,,,
CON=C(C)CC1CC(O)=C(c2c(C)cc(-c3ccc(C(F)(F)F)cc3)cc2C)C1=O (mixture of isomers) [6-016],0 (Herbicidal ratio of 5% or lower (almost no effect)),0 (Herbicidal ratio of 5% or lower (almost no effect)),0 (Herbicidal ratio of 5% or lower (almost no effect)),0 (Herbicidal ratio of 5% or lower (almost no effect)),0 (Herbicidal ratio of 5% or lower (almost no effect)),0 (Herbicidal ratio of 5% or lower (almost no effect)),5 (Herbicidal ratio of 90% or more (almost completely withered)),4 (Herbicidal ratio of 70% or higher and lower than 90%),0 (Herbicidal ratio of 5% or lower (almost no effect)),5 (Herbicidal ratio of 90% or more (almost completely withered)),2 (Herbicidal ratio of 20% or higher and lower than 40%),0 (Herbicidal ratio of 5% or lower (almost no effect)),5 (Herbicidal ratio of 90% or more (almost completely withered)),5 (Herbicidal ratio of 90% or more (almost completely withered)),4 (Herbicidal ratio of 70% or higher and lower than 90%),,,,,
CON=C(C)CC1CC(OCC#N)=C(c2c(C)cc(C)cc2C)C1=O (stereo not drawn) [1-013],0 (Herbicidal ratio of 5% or lower (almost no effect)),,,0 (Herbicidal ratio of 5% or lower (almost no effect)),0 (Herbicidal ratio of 5% or lower (almost no effect)),,0 (Herbicidal ratio of 5% or lower (almost no effect)),0 (Herbicidal ratio of 5% or lower (almost no effect)),0 (Herbicidal ratio of 5% or lower (almost no effect)),0 (Herbicidal ratio of 5% or lower (almost no effect)),,0 (Herbicidal ratio of 5% or lower (almost no effect)),0 (Herbicidal ratio of 5% or lower (almost no effect)),,0 (Herbicidal ratio of 5% or lower (almost no effect)),0 (Herbicidal ratio of 5% or lower (almost no effect)),0 (Herbicidal ratio of 5% or lower (almost no effect)),0 (Herbicidal ratio of 5% or lower (almost no effect)),0 (Herbicidal ratio of 5% or lower (almost no effect)),0 (Herbicidal ratio of 5% or lower (almost no effect))

# — patent publication US11000033B2, “Ketone or oxime compound, and herbicide” (NISSAN CHEMICAL CORPORATION, priority 2014, dated 2021)
